# According to PubChem BioAssay (NCI):
#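 Interpolation was linear, between the two tested concentrations surrounding the appropriate level; five concentrations were tested over 48 hours in 96-well plates. GI50 marks 50% less growth. The concentration for full growth arrest is given as TGI.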
# Columns and labels:
# Experiment in all cases: DTP human tumour cell line panel, 48 h
# [1] = tested on: MALME-3M melanoma
# [2] = tested on: MOLT-4 leukemia
# [3] = tested on: OVCAR-5 ovarian
# [4] = tested on: HCT-15 colon
# [5] = tested on: SF-539 CNS
# [6] = tested on: BT-549 breast
# [7] = tested on: MCF7 breast
# [8] = tested on: K-562 leukemia
# [9] = tested on: SK-MEL-28 melanoma
# [10] = tested on: KM12 colon
# [11] = tested on: SK-MEL-5 melanoma
# [12] = tested on: T-47D breast
# [13] = tested on: CCRF-CEM leukemia
# [14] = tested on: IGROV1 ovarian
# [15] = tested on: SF-268 CNS
# [16] = tested on: UACC-62 melanoma
# [17] = tested on: OVCAR-4 ovarian
# [18] = tested on: NCI-H23 lung
# [19] = tested on: UO-31 renal
# [20] = tested on: SNB-75 CNS
# [21] = tested on: 786-0 renal
# [22] = tested on: HL-60(TB) leukemia
# [23] = tested on: A498 renal
# [24] = tested on: COLO 205 colon
# [25] = tested on: RXF 393 renal
# [26] = tested on: TK-10 renal
# [27] = tested on: MDA-MB-231 breast
# [28] = tested on: NCI-H522 lung
# [29] = tested on: HOP-92 NSCLC
# [30] = tested on: SN12C renal
# [31] = tested on: HS 578T breast
# [32] = tested on: SF-295 CNS
# [33] = tested on: ACHN renal
# [34] = tested on: SW-620 colon
# [35] = tested on: UACC-257 melanoma
# [36] = tested on: OVCAR-3 ovarian
# [37] = tested on: MDA-MB-435
# [38] = tested on: DU-145 prostate
# [39] = tested on: SK-OV-3 ovarian
# [40] = tested on: LOX IMVI melanoma
# [41] = tested on: EKVX NSCLC
# [42] = tested on: U251 CNS
# [43] = tested on: M14 melanoma
# [44] = tested on: OVCAR-8 ovarian
# [45] = tested on: HOP-62 NSCLC
# [46] = tested on: SNB-19 CNS
# [47] = tested on: HCC-2998 colon
# [48] = tested on: PC-3 prostate
# [49] = tested on: SK-MEL-2 melanoma
# [50] = tested on: A549 NSCLC
# [51] = tested on: RPMI-8226 leukemia
# [52] = tested on: HCT-116 colon
# [53] = tested on: NCI-H460 lung
# [54] = tested on: HT29 colon
# [55] = tested on: NCI/ADR-RES ovarian
# [56] = tested on: NCI-H226 lung
# [57] = tested on: SR leukemia
# [58] = tested on: CAKI-1 renal
smiles,measurement,setting,value
Cc1nc2cc(-c3nn(C(C)C)c4ncnc(N)c34)ccc2o1,GI50,[1],3.47 nM
same,TGI,[1],78.7 nM
same,GI50,[2],20.6 nM
same,TGI,[2],> 3500 nM
same,GI50,[3],14.9 nM
same,TGI,[3],2180 nM
same,GI50,[4],12.6 nM
same,TGI,[4],> 6080 nM
same,GI50,[5],22.7 nM
same,TGI,[5],169 nM
same,GI50,[6],3.51 nM
same,TGI,[6],61 nM
same,GI50,[7],3.79 nM
same,TGI,[7],> 10000 nM
same,GI50,[8],28.8 nM
same,TGI,[8],> 10000 nM
same,GI50,[9],6.62 nM
same,TGI,[9],125 nM
same,GI50,[10],17.2 nM
same,TGI,[10],4980 nM
same,GI50,[11],15.8 nM
same,TGI,[11],103 nM
same,GI50,[12],1.34 nM
same,TGI,[12],15.8 nM
same,GI50,[13],27 nM
same,TGI,[13],> 10000 nM
same,GI50,[14],3.41 nM
same,TGI,[14],55.9 nM
same,GI50,[15],14.3 nM
same,TGI,[15],1840 nM
same,GI50,[16],3.93 nM
same,TGI,[16],44 nM
same,GI50,[17],6.46 nM
same,TGI,[17],97 nM
same,GI50,[18],41.5 nM
same,TGI,[18],> 7000 nM
same,GI50,[19],2.11 nM
same,TGI,[19],61.1 nM
same,GI50,[20],3.09 nM
same,TGI,[20],39.1 nM
same,GI50,[21],13.6 nM
same,TGI,[21],287 nM
same,GI50,[22],68 nM
same,TGI,[22],> 10000 nM
same,GI50,[23],1.85 nM
same,TGI,[23],6.89 nM
same,GI50,[24],12.1 nM
same,TGI,[24],870 nM
same,GI50,[25],6.62 nM
same,TGI,[25],104 nM
same,GI50,[26],6.25 nM
same,TGI,[26],166 nM
same,GI50,[27],11.6 nM
same,TGI,[27],> 3930 nM
same,GI50,[28],3.64 nM
same,TGI,[28],787 nM
same,GI50,[29],1.96 nM
same,TGI,[29],34.4 nM
same,GI50,[30],9.83 nM
same,TGI,[30],> 10000 nM
same,GI50,[31],5.18 nM
same,TGI,[31],47.3 nM
same,GI50,[32],6.99 nM
same,TGI,[32],78.1 nM
same,GI50,[33],10.2 nM
same,TGI,[33],1220 nM
same,GI50,[34],36.6 nM
same,TGI,[34],> 10000 nM
same,GI50,[35],11.1 nM
same,TGI,[35],112 nM
same,GI50,[36],12.5 nM
same,TGI,[36],627 nM
same,GI50,[37],8.54 nM
same,TGI,[37],98.2 nM
same,GI50,[38],19.7 nM
same,TGI,[38],> 10000 nM
same,GI50,[39],4.65 nM
same,TGI,[39],44.6 nM
same,GI50,[40],14.1 nM
same,TGI,[40],660 nM
same,GI50,[41],14.1 nM
same,TGI,[41],286 nM
same,GI50,[42],19.4 nM
same,TGI,[42],2350 nM
same,GI50,[43],9.73 nM
same,TGI,[43],1210 nM
same,GI50,[44],19.8 nM
same,TGI,[44],431 nM
same,GI50,[45],21.8 nM
same,TGI,[45],415 nM
same,GI50,[46],41.2 nM
same,TGI,[46],> 10000 nM
same,GI50,[47],12.2 nM
same,TGI,[47],> 10000 nM
same,GI50,[48],6.5 nM
same,TGI,[48],598 nM
same,GI50,[49],21.3 nM
same,TGI,[49],137 nM
same,GI50,[50],12.7 nM
same,TGI,[50],310 nM
same,GI50,[51],3.42 nM
same,TGI,[51],385 nM
same,GI50,[52],35 nM
same,TGI,[52],> 10000 nM
same,GI50,[53],5.89 nM
same,TGI,[53],> 10000 nM
same,GI50,[54],20.8 nM
same,TGI,[54],> 5340 nM
same,GI50,[55],26.7 nM
same,TGI,[55],537 nM
same,GI50,[56],5.05 nM
same,TGI,[56],191 nM
same,GI50,[57],16.8 nM
same,TGI,[57],8070 nM
same,GI50,[58],4.9 nM
same,TGI,[58],84.4 nM
